From ChEMBL document CHEMBL1201862, “PubChem BioAssay data set” (2004) come the findings set out here.

Experiment [1] concerns the target T1, Fatty acid synthase (Homo sapiens, UniProt P49327). Description: FAS thioesterase domain inhibitors, dose response, biochemical, kinetic fluorescence intensity (AID 624326).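 Note: rate of fluorescence rise from hydrolysis of a fluorogenic O-methyl fluorescein ester substrate.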 Format: functional.
The target of experiment [2] is T1, Fatty acid synthase. Briefly: FAS thioesterase domain inhibitors, dose response, biochemical, endpoint fluorescence intensity, uHTS hits (AID 624327).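 Note: fluorescence from hydrolysis of an O-methyl fluorescein acyl ester substrate by the enzyme.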 It is filed as functional.
The target in the next experiment is Kallikrein-7 (Homo sapiens, UniProt P49862). Description: Fluorescence Intensity-based biochemical primary high throughput dose response assay to identify activators of kallikrein-7 (K7) zymogen.
Sequence of Kallikrein-7 (P49862 whole entry): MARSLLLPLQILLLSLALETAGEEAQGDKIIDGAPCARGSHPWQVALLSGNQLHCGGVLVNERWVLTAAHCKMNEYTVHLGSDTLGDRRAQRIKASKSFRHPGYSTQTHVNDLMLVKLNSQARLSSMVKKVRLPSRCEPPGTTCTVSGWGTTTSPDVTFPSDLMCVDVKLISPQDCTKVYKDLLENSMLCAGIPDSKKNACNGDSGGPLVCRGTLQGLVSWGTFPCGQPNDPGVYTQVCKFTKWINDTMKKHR
Experiment [3] in a line: THP-1 cell cytotoxicity, dose response, cytotoxicity control for non-replicating M. tuberculosis project (AID 489025). It is filed as functional.
A further experiment has as its target T2, Leucine aminopeptidase (Plasmodium falciparum 3D7, UniProt Q8IL11).
T2 sequence (Q8IL11 whole entry): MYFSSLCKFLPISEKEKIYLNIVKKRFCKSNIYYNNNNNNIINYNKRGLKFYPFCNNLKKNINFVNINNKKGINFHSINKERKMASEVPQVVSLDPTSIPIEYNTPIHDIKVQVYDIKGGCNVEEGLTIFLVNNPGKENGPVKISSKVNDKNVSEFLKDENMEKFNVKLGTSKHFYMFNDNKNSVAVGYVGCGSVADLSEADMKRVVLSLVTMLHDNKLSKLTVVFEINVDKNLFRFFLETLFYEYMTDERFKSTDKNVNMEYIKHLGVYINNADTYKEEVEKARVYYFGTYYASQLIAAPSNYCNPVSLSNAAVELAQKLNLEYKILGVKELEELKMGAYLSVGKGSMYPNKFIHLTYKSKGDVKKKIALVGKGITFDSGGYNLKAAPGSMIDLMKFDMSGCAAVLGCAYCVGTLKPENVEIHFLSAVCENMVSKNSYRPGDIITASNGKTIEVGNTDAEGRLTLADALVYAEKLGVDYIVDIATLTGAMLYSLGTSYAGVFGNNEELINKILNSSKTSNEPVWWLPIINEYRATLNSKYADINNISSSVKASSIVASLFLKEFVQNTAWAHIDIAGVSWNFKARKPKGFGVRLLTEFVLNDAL
Description: P. falciparum M17LAP inhibitors, primary screen, biochemical, fluorogenic H-Leu-NHMec substrate, 1536-well (AID 1619). Format: functional.

In experiment [4] the target is T3, Long-chain-fatty-acid--AMP ligase FadD28 (Mycobacterium tuberculosis, UniProt P9WQ59).
T3 sequence (P9WQ59 whole entry): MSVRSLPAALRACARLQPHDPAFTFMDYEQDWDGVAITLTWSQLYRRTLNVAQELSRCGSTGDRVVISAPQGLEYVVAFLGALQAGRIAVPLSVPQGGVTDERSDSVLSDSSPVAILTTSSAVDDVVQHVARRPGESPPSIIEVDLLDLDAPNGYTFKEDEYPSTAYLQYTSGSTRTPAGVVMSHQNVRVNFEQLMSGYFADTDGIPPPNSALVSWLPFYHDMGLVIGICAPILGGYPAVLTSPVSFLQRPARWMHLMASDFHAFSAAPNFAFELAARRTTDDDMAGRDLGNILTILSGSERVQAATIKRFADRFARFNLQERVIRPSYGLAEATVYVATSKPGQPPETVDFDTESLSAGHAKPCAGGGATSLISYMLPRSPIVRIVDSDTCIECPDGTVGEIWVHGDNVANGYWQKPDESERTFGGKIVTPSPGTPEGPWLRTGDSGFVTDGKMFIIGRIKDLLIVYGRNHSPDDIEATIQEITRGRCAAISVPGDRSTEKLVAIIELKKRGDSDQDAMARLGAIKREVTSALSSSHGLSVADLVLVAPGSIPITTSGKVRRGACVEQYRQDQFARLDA
Briefly: Fluorescence polarization aasay to screen for inhibitors that compete for the binding of FadD28 to a bisubstrate Measured in Biochemical System Using Plate Reader - 2147-01_Inhibitor_Dose_CherryPick_Activity. It is filed as functional, Mycobacterium tuberculosis H37Rv. On the technique in general: In fluorescence polarisation assays a small probe gives low polarisation when free and higher when bound to something large.

The target of experiment [5] is Voltage-dependent T-type calcium channel subunit alpha-1H (Homo sapiens, UniProt O95180). Format: functional.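 Note: channel activity triggered by adding a high calcium stimulation buffer.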
Sequence of Voltage-dependent T-type calcium channel subunit alpha-1H (O95180 whole entry, the tested form may be a part): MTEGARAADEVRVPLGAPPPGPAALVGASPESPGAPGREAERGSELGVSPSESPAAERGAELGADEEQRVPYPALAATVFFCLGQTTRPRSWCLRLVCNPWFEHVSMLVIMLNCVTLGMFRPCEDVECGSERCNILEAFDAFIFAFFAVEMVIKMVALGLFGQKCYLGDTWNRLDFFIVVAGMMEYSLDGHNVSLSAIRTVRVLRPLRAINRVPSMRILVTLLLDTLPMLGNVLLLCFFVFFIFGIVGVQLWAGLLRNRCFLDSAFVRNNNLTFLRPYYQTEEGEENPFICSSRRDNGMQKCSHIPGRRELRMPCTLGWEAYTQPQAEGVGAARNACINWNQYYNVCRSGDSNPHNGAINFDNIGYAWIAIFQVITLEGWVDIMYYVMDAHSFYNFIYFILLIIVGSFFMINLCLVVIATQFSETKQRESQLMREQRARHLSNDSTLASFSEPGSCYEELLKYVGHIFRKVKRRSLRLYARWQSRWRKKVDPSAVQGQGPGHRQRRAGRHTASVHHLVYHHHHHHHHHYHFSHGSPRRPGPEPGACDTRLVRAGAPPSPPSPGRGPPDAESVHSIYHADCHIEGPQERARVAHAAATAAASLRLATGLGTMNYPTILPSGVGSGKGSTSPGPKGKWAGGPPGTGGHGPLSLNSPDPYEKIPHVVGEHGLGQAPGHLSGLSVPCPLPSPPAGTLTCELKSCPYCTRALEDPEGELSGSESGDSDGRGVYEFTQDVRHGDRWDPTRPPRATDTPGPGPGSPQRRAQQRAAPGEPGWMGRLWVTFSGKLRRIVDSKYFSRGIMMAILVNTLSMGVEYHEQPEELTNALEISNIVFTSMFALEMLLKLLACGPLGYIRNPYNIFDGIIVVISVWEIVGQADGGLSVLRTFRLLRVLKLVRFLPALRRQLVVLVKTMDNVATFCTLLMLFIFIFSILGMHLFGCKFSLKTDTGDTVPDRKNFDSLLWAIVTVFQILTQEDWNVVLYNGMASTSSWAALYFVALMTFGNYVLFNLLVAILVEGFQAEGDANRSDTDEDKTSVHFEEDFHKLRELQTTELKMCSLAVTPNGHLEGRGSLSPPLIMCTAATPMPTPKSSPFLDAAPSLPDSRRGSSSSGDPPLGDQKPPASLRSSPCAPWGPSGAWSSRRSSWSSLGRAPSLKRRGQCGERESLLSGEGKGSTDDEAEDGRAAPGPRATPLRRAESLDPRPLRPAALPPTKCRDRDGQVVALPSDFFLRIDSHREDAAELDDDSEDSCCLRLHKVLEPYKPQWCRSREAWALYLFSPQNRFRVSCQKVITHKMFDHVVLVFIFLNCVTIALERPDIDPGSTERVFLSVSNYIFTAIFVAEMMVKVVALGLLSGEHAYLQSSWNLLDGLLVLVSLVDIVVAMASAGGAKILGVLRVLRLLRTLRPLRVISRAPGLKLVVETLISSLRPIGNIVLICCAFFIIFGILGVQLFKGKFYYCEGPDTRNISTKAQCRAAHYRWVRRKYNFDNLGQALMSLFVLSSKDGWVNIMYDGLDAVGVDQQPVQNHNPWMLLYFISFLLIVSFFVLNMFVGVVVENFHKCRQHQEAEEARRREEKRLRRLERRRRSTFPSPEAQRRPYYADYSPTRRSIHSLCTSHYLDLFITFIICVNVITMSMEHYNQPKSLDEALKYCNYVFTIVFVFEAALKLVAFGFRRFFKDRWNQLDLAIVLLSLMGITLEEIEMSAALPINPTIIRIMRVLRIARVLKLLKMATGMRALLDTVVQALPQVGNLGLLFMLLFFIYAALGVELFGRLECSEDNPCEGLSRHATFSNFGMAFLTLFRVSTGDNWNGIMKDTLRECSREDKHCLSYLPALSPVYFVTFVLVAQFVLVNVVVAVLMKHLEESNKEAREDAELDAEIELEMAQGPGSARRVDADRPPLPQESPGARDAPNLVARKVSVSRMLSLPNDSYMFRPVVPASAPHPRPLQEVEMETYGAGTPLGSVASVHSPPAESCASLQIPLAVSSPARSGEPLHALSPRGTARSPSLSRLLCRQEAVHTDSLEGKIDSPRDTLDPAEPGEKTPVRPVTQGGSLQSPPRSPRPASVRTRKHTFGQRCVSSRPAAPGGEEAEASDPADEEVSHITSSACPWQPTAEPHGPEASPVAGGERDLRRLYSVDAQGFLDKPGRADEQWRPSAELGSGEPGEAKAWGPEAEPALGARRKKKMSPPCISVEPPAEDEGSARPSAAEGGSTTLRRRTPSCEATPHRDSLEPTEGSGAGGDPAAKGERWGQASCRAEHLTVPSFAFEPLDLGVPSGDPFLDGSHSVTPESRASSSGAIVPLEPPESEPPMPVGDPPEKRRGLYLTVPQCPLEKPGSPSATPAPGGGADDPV
The nature of experiment [6]: inhibitors of clade B AD8 Env fusion, dose response, cell-based, cherry-pick (AID 652062).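 Note: luciferase signal from cell-cell fusion driven by HIV-1 clade B AD8 Env; potency is for inhibitors of fusion seen as a drop in luminescence.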 It is filed as functional.
Experiment [7] is described as follows: inhibitors of HIV Env-driven cell fusion, dose response, cherry-pick (AID 652057). It is filed as functional, cell-based.
Experiment [8] can be described thus: off-target signal loss in HeLa-CEM21 co-culture – HeLa F-luc CTL cells, cherry-picked, counter-screen for HIV-1 Env fusion inhibitor project, dose response (AID 652040).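 Note: potency for signal decrease marking cytotoxic or nonspecific inhibition.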 It is filed as functional, cell-based. A general note: The purpose of a counterscreen is to sort out artefacts and off-target activity.
In a further experiment the test system is HEK293. Briefly: HEK293T cell cytotoxicity, dose response, cytotoxicity control, ATP luminescence, cherry-pick samples (AID 687005).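 Note: cells exposed to compound for 48 hours.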 It is filed as functional, cell-based. As to conditions: Homo sapiens.
Experiment [9] can be described thus: HEK293 Cytotoxicity Assay Measured in Cell-Based System Using Plate Reader - 7071-01_Inhibitor_Dose_CherryPick_Activity_Set2. It is filed as functional.

Active and inactive are the calls of the source.

T1 sequence (P49327 whole entry, the tested form may be a part): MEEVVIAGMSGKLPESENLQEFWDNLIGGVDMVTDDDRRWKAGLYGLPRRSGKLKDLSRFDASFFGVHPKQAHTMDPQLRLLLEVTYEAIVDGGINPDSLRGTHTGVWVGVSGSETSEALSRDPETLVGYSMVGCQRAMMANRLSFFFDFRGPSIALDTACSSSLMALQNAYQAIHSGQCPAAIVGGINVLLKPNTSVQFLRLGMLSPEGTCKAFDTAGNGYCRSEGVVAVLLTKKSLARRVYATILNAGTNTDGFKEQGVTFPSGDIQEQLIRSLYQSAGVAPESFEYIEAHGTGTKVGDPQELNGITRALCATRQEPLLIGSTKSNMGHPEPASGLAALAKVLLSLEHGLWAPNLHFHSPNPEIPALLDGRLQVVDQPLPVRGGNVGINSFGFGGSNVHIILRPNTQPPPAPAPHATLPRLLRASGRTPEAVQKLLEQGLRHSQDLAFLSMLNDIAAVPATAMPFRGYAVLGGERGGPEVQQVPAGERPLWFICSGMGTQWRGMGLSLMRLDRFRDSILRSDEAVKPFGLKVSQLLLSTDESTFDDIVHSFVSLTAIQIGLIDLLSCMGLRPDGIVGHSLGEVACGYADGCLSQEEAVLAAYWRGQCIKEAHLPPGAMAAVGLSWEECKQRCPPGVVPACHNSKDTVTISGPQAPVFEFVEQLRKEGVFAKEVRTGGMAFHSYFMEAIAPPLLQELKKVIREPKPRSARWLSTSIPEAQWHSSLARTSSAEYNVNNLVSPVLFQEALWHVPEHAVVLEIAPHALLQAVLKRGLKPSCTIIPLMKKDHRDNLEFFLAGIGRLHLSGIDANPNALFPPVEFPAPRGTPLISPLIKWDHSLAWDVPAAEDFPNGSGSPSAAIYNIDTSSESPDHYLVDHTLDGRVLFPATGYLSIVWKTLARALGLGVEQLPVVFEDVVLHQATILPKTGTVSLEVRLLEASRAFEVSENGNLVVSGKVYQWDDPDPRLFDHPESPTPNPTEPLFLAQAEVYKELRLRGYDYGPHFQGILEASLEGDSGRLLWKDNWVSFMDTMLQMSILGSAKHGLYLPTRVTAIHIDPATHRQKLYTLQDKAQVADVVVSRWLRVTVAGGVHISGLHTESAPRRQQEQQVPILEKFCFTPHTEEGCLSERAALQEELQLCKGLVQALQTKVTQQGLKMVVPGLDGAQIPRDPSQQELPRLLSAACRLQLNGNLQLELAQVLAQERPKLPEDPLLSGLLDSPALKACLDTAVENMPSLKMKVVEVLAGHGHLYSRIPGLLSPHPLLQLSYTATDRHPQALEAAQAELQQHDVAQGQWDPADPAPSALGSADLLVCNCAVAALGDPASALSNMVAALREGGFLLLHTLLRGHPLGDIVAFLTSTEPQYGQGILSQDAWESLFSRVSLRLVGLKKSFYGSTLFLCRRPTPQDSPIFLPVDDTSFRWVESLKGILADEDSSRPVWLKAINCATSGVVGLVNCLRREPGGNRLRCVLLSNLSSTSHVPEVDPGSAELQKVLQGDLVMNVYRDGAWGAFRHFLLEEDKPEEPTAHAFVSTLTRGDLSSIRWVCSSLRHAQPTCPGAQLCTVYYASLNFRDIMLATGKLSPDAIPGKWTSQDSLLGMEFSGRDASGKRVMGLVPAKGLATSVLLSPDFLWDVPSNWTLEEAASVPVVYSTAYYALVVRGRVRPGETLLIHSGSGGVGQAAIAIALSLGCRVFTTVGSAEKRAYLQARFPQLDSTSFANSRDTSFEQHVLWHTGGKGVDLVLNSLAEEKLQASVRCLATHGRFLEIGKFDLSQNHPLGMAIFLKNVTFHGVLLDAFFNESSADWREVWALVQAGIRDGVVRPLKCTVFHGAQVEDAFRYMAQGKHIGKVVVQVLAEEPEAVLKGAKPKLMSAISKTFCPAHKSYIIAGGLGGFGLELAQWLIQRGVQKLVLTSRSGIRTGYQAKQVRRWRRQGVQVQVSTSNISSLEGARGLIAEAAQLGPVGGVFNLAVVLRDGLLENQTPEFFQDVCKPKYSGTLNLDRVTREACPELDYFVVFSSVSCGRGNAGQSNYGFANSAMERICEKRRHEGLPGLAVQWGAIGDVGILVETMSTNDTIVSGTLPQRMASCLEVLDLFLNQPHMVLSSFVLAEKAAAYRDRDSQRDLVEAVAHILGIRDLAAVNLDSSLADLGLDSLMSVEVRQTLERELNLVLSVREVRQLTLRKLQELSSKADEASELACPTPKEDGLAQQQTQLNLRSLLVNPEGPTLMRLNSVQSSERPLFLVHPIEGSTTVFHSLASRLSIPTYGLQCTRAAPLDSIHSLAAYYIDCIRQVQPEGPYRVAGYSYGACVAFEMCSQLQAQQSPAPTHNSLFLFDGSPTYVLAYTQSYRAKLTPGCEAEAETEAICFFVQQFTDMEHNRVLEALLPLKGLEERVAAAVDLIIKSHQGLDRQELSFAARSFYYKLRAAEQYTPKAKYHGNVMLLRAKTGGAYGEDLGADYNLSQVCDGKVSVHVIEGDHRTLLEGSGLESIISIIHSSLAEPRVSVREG

The term IC50 denotes the concentration that gives 50% inhibition. For the molecule `O=C(COC(=O)c1cc([N+](=O)[O-])ccc1N1CCOCC1)Nc1ncc(Cl)cc1Cl`, the IC50 was 7.24 µM (active) at Fatty acid synthase [1] and 8.79 µM (active) on Fatty acid synthase [2].

The term EC50 denotes the concentration giving half of the maximal effect. Take `COc1ccc(OC)c(/C=C/C(=O)OCC(=O)NCc2ccco2)c1`: the EC50 on Kallikrein-7 was > 69.5 µM (inactive).

As for `Cc1ccc(-c2cn3cccnc3n2)cc1NC(=O)c1ccc(Br)o1`, at Kallikrein-7, the EC50 was > 69.5 µM (inactive).

Turning to `Cc1ccc(NC(=O)CCNS(=O)(=O)c2cc(Br)cnc2N)cc1Cl`, the values for the IC50 on Fatty acid synthase [1] and on Fatty acid synthase [2] were 16.1 µM (active) and 10.3 µM (active), respectively.

The term CC50 denotes the concentration at which the toxic effect on the cells reaches its halfway point. A word on the AC50: it is the midpoint of the concentration-response curve, whichever way the signal moves. For `O=C(Nc1sc2c(c1C(=O)O)CCCCC2)c1ccccc1F`, the CC50 in experiment [3] is > 40 µM (active). The IC50 on Leucine aminopeptidase was 71 µM (active). Besides, the AC50 in experiment [4] is > 100 µM (inactive).

With `Cc1ccc(CSCCNC(=O)c2ccc(Cl)c(S(=O)(=O)N3CCOCC3)c2)cc1`, in experiment [5], the EC50 was 4.41 µM (active). The AC50 in experiment [6] is 7.44 µM (active); in experiment [7] it was 25.3 µM (active); in experiment [4], 5.54 µM (active); in experiment [8] it was 54.5 µM (active).

Take `Cc1coc2c1c(C)cc1oc(=O)c(CC(=O)NCCCCCC(=O)O)c(C)c12`: the EC50 on Kallikrein-7 is > 69.5 µM (inactive).

Consider `COC(=O)C1=C(C)N(Cc2ccccc2)C(=O)N[C@H]1c1cccc(F)c1`, for which the AC50 (with HEK293; in experiment [9]) was 24.6 µM (active) in each case.

With `C[C@@H]1CN([C@H](C)CO)S(=O)(=O)c2ccc(C#Cc3ccccn3)cc2O[C@H]1CN(C)Cc1ccccc1`, the AC50 (in the experiment with HEK293; in [9]) was 5.16 µM (active) each time.
